The subject of assay [1] is OT-1 CD8+ T cells with SIINFEKL-loaded MC38 tumor cells. Nature of the assay: Murine cytotoxic T lymphocyte assay (IFN-γ, OT-1 CTL with MC38 tumor cells). To be noted: read-out: msCTL INFg IC50. The class given is cell-based, mouse. The essentials: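 OT-1 CD8+ T cells, expanded 5 days with OVA peptide (1 μg/mL) and mIL2, pretreated 1 h with DGK inhibitors, then co-cultured overnight at 37° C at 1:10 with MC38 cells pulsed 3 h with 1 μg/mL SIINFEKL. IFN-γ in 24 h supernatant by AlphaLISA.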

For a further assay, the system named is naïve human CD8 T cells. Nature of the assay: Human CD8 T cells IFN-γ assay.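 Note: Naïve human CD8 T cells stimulated with plate-bound anti-CD3 and soluble anti-CD28, IFN-γ in supernatant quantified by AlphaLISA and converted to pg/mL.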 In kind it is cell-based. To be noted: normalized to 3 μM reference compound with anti-CD3 plus anti-CD28 as 100% activation, read-out: HuCD8 INFG Normalized EC50.
For a further assay, the target named is T1, human DGKα (Homo sapiens, UniProt P23743).
T1 construct: TVMV protease cleavage site (C); Hexa-His (C); made in house; host or cells: Sf9 insect cells (baculovirus, Bac-to-Bac)
Put plainly: DGKα LIPGLO assay (extruded liposome substrate), in vitro DGK inhibition. The class given is biochemical. The settings on record: liposome (LIPGLO) assay; read-out: DGKa LIPGLO IC50.

For another assay, the target named is T2, human DGKζ (Homo sapiens, UniProt Q13574).
T2 construct: TVMV protease cleavage site (C); Hexa-His (C); made in house; host or cells: Sf9 insect cells (baculovirus, Bac-to-Bac)
Put plainly: DGKζ LIPGLO assay (extruded liposome substrate), in vitro DGK inhibition. The settings on record: liposome (LIPGLO) assay; read-out: DGKz LIPGLO IC50. The class given is biochemical.

In another assay the test system is Human venous whole blood. Nature of the assay: Human whole blood IFN-γ assay.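 Note: blood from healthy donors exposed to compound for 1 h before stimulation with anti-CD3 and anti-CD28 at 1 µg/mL each, IFN-γ quantified in supernatant by AlphaLISA.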 The class given is cell-based. To be noted: normalized to 3 μM reference compound with anti-CD3 plus anti-CD28 as 100% activation.
The mark [2] stands for this setting: human whole blood, read-out: INFg Whole Blood Normalized Agonist EC50.
[3] abbreviates: Homo sapiens, 24 h, human whole blood, read-out: INFg Whole Blood Normalized Agonist EC50.
Where [4] appears, read: Homo sapiens, 24 h, read-out: INFg Whole Blood Normalized Agonist EC50, human whole blood.

Each structure is given as a SMILES string. Read-outs that look alike come from different tables or passages of the source.

T2 sequence (Q13574 with tags, fused parts or gaps isoform Q13574-4): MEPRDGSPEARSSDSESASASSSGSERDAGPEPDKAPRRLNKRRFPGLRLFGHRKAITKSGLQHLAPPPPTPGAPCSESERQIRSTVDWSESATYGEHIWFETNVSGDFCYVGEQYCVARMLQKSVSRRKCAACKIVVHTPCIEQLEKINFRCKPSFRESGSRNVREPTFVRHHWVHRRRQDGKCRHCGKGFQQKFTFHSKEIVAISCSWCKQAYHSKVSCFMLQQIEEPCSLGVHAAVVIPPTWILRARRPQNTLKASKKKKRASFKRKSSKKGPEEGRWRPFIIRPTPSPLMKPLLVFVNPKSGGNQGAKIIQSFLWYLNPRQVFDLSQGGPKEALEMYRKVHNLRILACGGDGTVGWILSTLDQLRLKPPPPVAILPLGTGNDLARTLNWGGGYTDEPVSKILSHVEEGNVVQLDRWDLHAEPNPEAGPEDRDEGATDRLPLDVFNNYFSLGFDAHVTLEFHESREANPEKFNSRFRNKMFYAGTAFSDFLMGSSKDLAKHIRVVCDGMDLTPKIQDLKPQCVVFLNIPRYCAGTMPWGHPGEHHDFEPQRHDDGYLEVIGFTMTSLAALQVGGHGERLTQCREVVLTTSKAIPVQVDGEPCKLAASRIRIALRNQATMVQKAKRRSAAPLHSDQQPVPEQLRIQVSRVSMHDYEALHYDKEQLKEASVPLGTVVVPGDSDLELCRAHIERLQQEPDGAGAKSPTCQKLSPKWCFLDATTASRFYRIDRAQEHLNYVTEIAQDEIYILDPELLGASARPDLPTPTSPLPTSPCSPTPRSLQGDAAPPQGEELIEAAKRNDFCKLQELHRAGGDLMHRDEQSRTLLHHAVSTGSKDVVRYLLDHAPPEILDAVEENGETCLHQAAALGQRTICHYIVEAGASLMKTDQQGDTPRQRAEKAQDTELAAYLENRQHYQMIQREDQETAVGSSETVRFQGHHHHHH
T1 sequence (P23743 with tags, fused parts or gaps): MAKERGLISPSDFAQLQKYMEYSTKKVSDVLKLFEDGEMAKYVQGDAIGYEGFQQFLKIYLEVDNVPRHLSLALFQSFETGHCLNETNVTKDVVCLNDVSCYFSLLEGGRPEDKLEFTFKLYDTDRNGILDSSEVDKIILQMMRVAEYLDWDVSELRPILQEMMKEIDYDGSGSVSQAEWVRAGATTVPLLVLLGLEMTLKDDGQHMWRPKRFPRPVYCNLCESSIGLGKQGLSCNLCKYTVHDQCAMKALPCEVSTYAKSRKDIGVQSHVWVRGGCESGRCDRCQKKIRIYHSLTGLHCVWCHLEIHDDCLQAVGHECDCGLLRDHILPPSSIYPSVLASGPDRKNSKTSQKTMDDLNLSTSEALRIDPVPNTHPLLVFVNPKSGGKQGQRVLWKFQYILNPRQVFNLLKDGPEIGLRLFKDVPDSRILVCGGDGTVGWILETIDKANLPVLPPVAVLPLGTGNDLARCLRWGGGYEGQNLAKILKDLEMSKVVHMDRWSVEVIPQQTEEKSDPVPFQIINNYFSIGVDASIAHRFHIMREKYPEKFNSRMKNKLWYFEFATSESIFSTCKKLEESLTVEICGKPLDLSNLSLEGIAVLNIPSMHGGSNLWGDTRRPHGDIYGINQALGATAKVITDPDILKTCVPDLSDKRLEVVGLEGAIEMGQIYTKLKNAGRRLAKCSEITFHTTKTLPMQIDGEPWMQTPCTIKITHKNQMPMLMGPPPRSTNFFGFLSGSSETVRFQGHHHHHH
Protocol for Human venous whole blood: Human Whole Blood IFN-γ Assay
Human venous whole blood (22.5 μL per well), obtained from healthy donors, was pre-treated with compounds for one hour at 37° C. in a humidified 95% air/5% CO2 incubator. The blood was stimulated with 2.5 μL anti-human CD3 and anti-CD28 mAb at a final concentration of 1 μg/mL each for 24 hours at 37° C. IFN-γ in the supernatants was measured using AlphLISA kit (Cat # AL217).

As to `Cn1c(=O)cc(N2CCN(C(c3ccc(F)cc3)c3ccc(F)cc3)C(CO)C2)c2nc(C#N)ccc21` (single isomer, unassigned) [Example 1, 8-(4-(bis(4-fluorophenyl)methyl)-3-(hydroxymethyl)piperazin-1-yl)-5-methyl-6-oxo-5,6-dihydro-1,5-naphthyridine-2-carbonitrile], the values for the IC50 (in assay [1]; at human DGKα; at human DGKζ) were 230 nM, 3000 nM and 480 nM, respectively. Also, the results for the concentration giving a half-maximal response (EC50) with naïve human CD8 T cells and in the assay on Human venous whole blood (setting [2]) were 96 nM and 820 nM, respectively.

For `Cn1c(=O)cc(N2CCN(C(c3ccc(F)cc3)c3ccc(F)cc3)C(CO)C2)c2nc(C#N)ccc21` (single isomer, unassigned) [Example 2, 8-(4-(bis(4-fluorophenyl)methyl)-3-(hydroxymethyl)piperazin-1-yl)-5-methyl-6-oxo-5,6-dihydro-1,5-naphthyridine-2-carbonitrile], the half-inhibitory concentration (IC50) turned out to be 210 nM in assay [1] (Mus musculus, MC-38); 2600 nM at human DGKα; 3300 nM at human DGKζ. The EC50 in the assay with naïve human CD8 T cells (Homo sapiens, T-cell, 20 h) was found to be 120 nM; in the assay with Human venous whole blood (setting [2]), 2700 nM.

In the case of `COC(=O)C1CN(c2cc(=O)n(C)c3ccc(C#N)nc23)CCN1C(c1ccc(F)cc1)c1ccc(F)cc1` (single isomer, unassigned) [Example 39, Methyl 1-(bis(4-fluorophenyl)methyl)-4-(6-cyano-1-methyl-2-oxo-1,2-dihydro-1,5-naphthyridin-4-yl)piperazine-2-carboxylate], the values for the half-maximal inhibitory concentration (IC50) (in assay [1]; on human DGKα; at human DGKζ) were 1900 nM, 240000 nM and 9400 nM, respectively. The results for the 50% effective concentration (EC50) in the assay with naïve human CD8 T cells and in the assay on Human venous whole blood (setting [2]) were 220 nM and 9700 nM, respectively.

For `COC(=O)C1CN(c2cc(=O)n(C)c3ccc(C#N)nc23)CCN1C(c1ccc(F)cc1)c1ccc(F)cc1` (single isomer, unassigned) [Example 40, Methyl 1-(bis(4-fluorophenyl)methyl)-4-(6-cyano-1-methyl-2-oxo-1,2-dihydro-1,5-naphthyridin-4-yl)piperazine-2-carboxylate], the results for the concentration for half-maximal inhibition (IC50) (in assay [1]; on human DGKα; at human DGKζ) were 71 nM, 1200 nM and 630 nM, respectively. Moreover, the EC50 in the assay on naïve human CD8 T cells was determined as 28 nM; in the assay with Human venous whole blood (setting [2]) it was 780 nM.

For `Cn1c(=O)cc(N2CCN(C(c3ccc(F)cc3)c3ccc(F)cc3)C(C(N)=O)C2)c2nc(C#N)ccc21` (single isomer, unassigned) [Example 42, 1-(bis(4-fluorophenyl)methyl)-4-(6-cyano-1-methyl-2-oxo-1,2-dihydro-1,5-naphthyridin-4-yl)piperazine-2-carboxamide], the IC50 in assay [1] (Mus musculus, MC-38) worked out at 2600 nM; on human DGKα, 180000 nM; on human DGKζ, 9700 nM. Besides, the half-maximal effective concentration (EC50) in the assay with naïve human CD8 T cells came to 610 nM; with Human venous whole blood (setting [3]) it was 3100 nM.

On to `Cn1c(=O)cc(N2CCN(C(c3ccc(F)cc3)c3ccc(F)cc3)C(C#N)C2)c2nc(C#N)ccc21` (single isomer, unassigned) [Example 44, 8-(4-(bis(4-fluorophenyl)methyl)-3-cyanopiperazin-1-yl)-5-methyl-6-oxo-5,6-dihydro-1,5-naphthyridine-2-carbonitrile], for which the 50% inhibitory concentration (IC50) in assay [1] (Mus musculus, MC-38) is 590 nM; on human DGKα it was 2900 nM; on human DGKζ, 5500 nM. Besides, the half-maximal effective concentration (EC50) with naïve human CD8 T cells (Homo sapiens, T-cell, 20 h) turned out to be 460 nM; in the assay with Human venous whole blood (setting [3]), 3900 nM.

Take `COC(=O)C1CN(c2c(C#N)c(=O)n(C)c3ccc(C#N)nc23)CCN1C(c1ccc(F)cc1)c1ccc(F)cc1` (single isomer, unassigned) [Example 51, methyl 1-(bis(4-fluorophenyl)methyl)-4-(3,6-dicyano-1-methyl-2-oxo-1,2-dihydro-1,5-naphthyridin-4-yl)piperazine-2-carboxylate]: the half-inhibitory concentration (IC50) in assay [1] stood at 1900 nM; at human DGKζ, 2100 nM. Further, the concentration for a half-maximal effect (EC50) was determined as 510 nM in the assay with naïve human CD8 T cells and 1600 nM with Human venous whole blood (setting [2]).

As for `CC(C)OC(=O)C1CN(c2c(C#N)c(=O)n(C)c3ccc(C#N)nc23)CCN1C(c1ccc(F)cc1)c1ccc(F)cc1` (single isomer, unassigned) [Example 65, Isopropyl 1-(bis(4-fluorophenyl)methyl)-4-(3,6-dicyano-1-methyl-2-oxo-1,2-dihydro-1,5-naphthyridin-4-yl)piperazine-2-carboxylate], the half-inhibitory concentration (IC50) in assay [1] amounted to 8400 nM; at human DGKα, 240000 nM. Moreover, the values for the half-maximal effective concentration (EC50) in the assay with naïve human CD8 T cells and with Human venous whole blood (setting [3]) were 1700 nM and 16000 nM, respectively.

For the compound `C[C@@H]1CN(c2cc(=O)n(C)c3ccc(C#N)nc23)[C@@H](C)CN1C(c1ccccc1)c1ccc(F)cc1` (single isomer, unassigned) [Example 183], the half-inhibitory concentration (IC50) in assay [1] (Mus musculus, MC-38) is 33 nM. In addition, the EC50 in the assay with naïve human CD8 T cells (Homo sapiens, T-cell, 20 h) is 39 nM; in the assay with Human venous whole blood (Homo sapiens, human whole blood, read-out: INFg Whole Blood Normalized Agonist EC50) it was 700 nM.

With `C[C@@H]1CN(c2cc(=O)n(C)c3ccc(C#N)nc23)[C@@H](C)CN1C(c1ccc(F)cc1)c1ccccc1F` (single isomer, unassigned) [Example 304], the half-maximal inhibitory concentration (IC50) in assay [1] was determined as 47 nM. The EC50 was determined as 8.5 nM in the assay with naïve human CD8 T cells and 490 nM in the assay on Human venous whole blood (setting [4]).

On to `C[C@@H]1CN(c2cc(=O)n(C)c3ccc(C#N)nc23)[C@@H](C)CN1C(c1ccc(F)cc1)c1ccccc1F` (single isomer, unassigned) [Example 305], for which the IC50 in assay [1] is 23 nM. The EC50 in the assay on naïve human CD8 T cells worked out at 26 nM; with Human venous whole blood (read-out: INFg Whole Blood Normalized Agonist EC50, human whole blood) it was 680 nM.

For the compound `C[C@@H]1CN(C(c2ccc(F)cc2)c2ccc(F)cc2)[C@@H](C)CN1c1cc(=O)n(C)c2ccc(C#N)nc12` [Example 4, 8-((2R,5S)-4-(bis(4-fluorophenyl)methyl)-2,5-dimethylpiperazin-1-yl)-5-methyl-6-oxo-5,6-dihydro-1,5-naphthyridine-2-carbonitrile], the IC50 in assay [1] (Mus musculus, MC-38) was found to be 320 nM. Moreover, the EC50 with naïve human CD8 T cells (Homo sapiens, T-cell, 20 h) came to 300 nM; in the assay with Human venous whole blood (setting [4]) it was 3500 nM.

Turning to `C[C@@H]1CN(c2c(Cl)c(=O)n(C)c3ccc(C#N)nc23)CCN1C(c1ccc(F)cc1)c1ccc(F)cc1` [Example 29, (R)-8-(4-(bis(4-fluorophenyl)methyl)-3-methylpiperazin-1-yl)-7-chloro-5-methyl-6-oxo-5,6-dihydro-1,5-naphthyridine-2-carbonitrile], the IC50 in assay [1] (Mus musculus, MC-38) came out at 37 nM. Moreover, the concentration giving a half-maximal response (EC50) in the assay with naïve human CD8 T cells (Homo sapiens, T-cell, 20 h) was 18 nM; in the assay with Human venous whole blood (setting [4]), 1300 nM.

Turning to `C[C@H]1CN(C(c2ccc(F)cc2)c2ccc(F)cc2)[C@@H](C)CN1c1cc(=O)n(C)c2ccc(C#N)nc12` [Example 133, 8-((2S,5S)-4-(bis(4-fluorophenyl)methyl)-2,5-dimethylpiperazin-1-yl)-5-methyl-6-oxo-5,6-dihydro-1,5-naphthyridine-2-carbonitrile], the IC50 in assay [1] (Mus musculus, MC-38) is 1100 nM. Besides, the EC50 is 840 nM in the assay with naïve human CD8 T cells (Homo sapiens, T-cell, 20 h) and 5800 nM in the assay on Human venous whole blood (setting [4]).

For `C[C@H]1CN(C(c2ccc(F)cc2)c2ccc(F)cc2)CCN1c1cc(=O)n(C)c2ccc(C#N)nc12` [Example 134, (S)-8-(4-(bis(4-fluorophenyl)methyl)-2-methylpiperazin-1-yl)-5-methyl-6-oxo-5,6-dihydro-1,5-naphthyridine-2-carbonitrile], the 50% inhibitory concentration (IC50) in assay [1] (Mus musculus, MC-38) was 390 nM; on human DGKα, 13000 nM; at human DGKζ, 4900 nM. In addition, in the assay on naïve human CD8 T cells (Homo sapiens, T-cell, 20 h), the 50% effective concentration (EC50) worked out at 590 nM.

Turning to `CC1CN(c2cc(=O)n(C)c3ccc(C#N)nc23)CC(C)N1C(c1ccc(F)cc1)c1ccc(F)cc1` (stereo not shown) [Example 163, 8-(4-(bis(4-fluorophenyl)methyl)-3,5-dimethylpiperazin-1-yl)-5-methyl-6-oxo-5,6-dihydro-1,5-naphthyridine-2-carbonitrile], the concentration for half-maximal inhibition (IC50) in assay [1] (Mus musculus, MC-38) amounted to 2100 nM; on human DGKα it was 16000 nM; at human DGKζ it was 12000 nM. Besides, the EC50 in the assay on naïve human CD8 T cells (Homo sapiens, T-cell, 20 h) is 1500 nM.

A word on the IC50: it is the concentration needed to halve the response being measured. The term EC50 denotes the concentration at which the effect is half-maximal.

Source of the values: patent publication US10669272B2, “Substituted naphthyridinone compounds useful as T cell activators” (BRISTOL-MYERS SQUIBB COMPANY, priority 2018, dated 2020).
